Where two headings read alike, the source gives them in different places.
Assays:
MEX-5 = biological target: T1, MEX-5 (Caenorhabditis elegans, UniProt Q9XUB2); assay: Fluorescence polarization screening of MEX-5 binding to fluorescein-labeled TCR2 RNA; conditions: read-out: MEX-5 score
T1 construct: The fragment of mex-5 containing the TZF domain (amino acids 236-350) was amplified; made in house; host or cells: Escherichia coli JM109
T1 sequence (Q9XUB2 236-350): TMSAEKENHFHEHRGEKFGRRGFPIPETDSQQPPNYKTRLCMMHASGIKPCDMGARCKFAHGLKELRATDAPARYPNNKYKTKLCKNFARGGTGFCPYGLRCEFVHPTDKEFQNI
Source text: The expression and purification of recombinant MEX-5 protein has previously been described in Pagano, J. M., Farley, B. M., McCoig, L. M. and Ryder, S. P. (2007) “Molecular basis of RNA recognition by the embryonic polarity determinant MEX-5;” J Biol Chem; 282, 8883-8894. The fragment of mex-5 containing the TZF domain (amino acids 236-350) was amplified from a commercially available ORFeome clone (Open Biosystems) and sub-cloned into the vector pMal-c (NEB), which encodes maltose binding protein as an N-terminal fusion. This construct is termed pMal-MEX-5 (236-350).
MEX-5 is expressed in Escherchia. coli JM109 liquid cultures grown at 37° C. Cultures were induced during mid log phase by the addition of 0.1 mM isopropyl 1-thio-β-D-galactopyranoside (IPTG) and allowed to grow for three hours. An amount of 100 μM zinc acetate (final concentration) was added at the time of induction. The pelleted cells were resuspended in lysis buffer (50 mM Tris pH 8.8, 200 mM NaCl, 2 mM DTT, EDTA free protease inhibitor tablet (Roche), 100 μM Zn(OAc)2) and lysed by sonication. The soluble protein was purified in three steps using standard chromatography methods: (1) amylose affinity (NEB), (2) Hi-TRAP-Q (GE Healthcare), and (3) Hi-TRAP-S (GE Healthcare). The Q buffer was composed of 50 mM Tris, pH 8.8, 20 mM-1500 mM NaCl, 2 mM DTT, and 100 μM Zn(OAc)2. The S buffer was composed of 50 mM MOPS, pH 6.0, 20 mM-1500 mM NaCl, 2 mM DTT, 100 μM Zn(OAc)2. The pure fractions, determined by coomassie-stained SDS-PAGE, were dialyzed into storage buffer (20 mM Tris, pH 8.0, 25 mM NaCl, 100 μM Zn(OAc)2, 2 mM DTT). The protein concentration was determined by measuring absorbance at 280 nm and the calculated extinction coefficient. The protein was stored at 50 μM concentration at 4° C.
All RNA oligonucleotides were chemically synthesized by Dharmacon or Integrated DNA Technologies. Upon arrival, each RNA was deprotected and stored according to the manufacturer's instructions. Prior to use, the RNA was resuspended in 10 mM Tris-HCl, pH 8.0, 0.1 mM EDTA, and the concentration determined by UV spectrophotometry using the calculated extinction coefficient at 260 nm based on the specific sequence. The sequence of the MEX-5 binding RNA (TCR2) is […] (SEQ ID NO:1). The POS-1 binding RNA (BMF018) is […] (SEQ ID NO:2). The MEX-3 binding RNA (SEQ 14) is […] (SEQ ID NO:3).
The RNA used for the small molecule screen was labeled at the 3′-end with fluorescein by Dharmacon during synthesis. In a few cases, follow up experiments were performed with post-synthetically labeled RNA. In this case, fluorescein 5-thiosemicarbazide (FTSC, Invitrogen) was used to 3′-end label each RNA after treatment with sodium periodate (see Reines, S. A. and Cantor, C. R. (1974) “New fluorescent hydrazide reagents for the oxidized 3′-terminus of RNA” Nucleic Acids Res. 1, 767-786). A representative 50 μl reaction consisted of 0.5 nanomoles RNA, 100 mM NaOAc, pH 5.1, and 5 nanomoles NaIO4. After the reaction was complete (90 minutes at room temperature), the sample was ethanol precipitated by adding 1 μl RNase free glycogen (Invitrogen 20 μg/μl), 1/20th volume of 5 M NaCl, and 2 volumes of 100% ice-cold ethanol. The resulting pellet was resuspended in 50 μl of 100 mM NaOAc, pH 5.1 containing 1 mM FTSC and was allowed to react overnight at 4° C. in the dark. The unreacted label was removed by ethanol precipitation with resuspension of the pellet in a small volume of TE, and purification over a Roche G-25 size exclusion spin column. The labeling efficiency is determined by calculating the ratio of fluorescein absorbance at 490 nm to RNA-fluorescein absorbance at 260 nm. Typical efficiencies are 60-80%.
The ability of MEX-5 to associate with RNA was monitored by fluorescence polarization using a victor V3 or victor V2V plate reader (Perkin Elmer) in 384-well FluoTrak microplates (Grenier). […]

POS-1 = biological target: T2, POS-1 (Caenorhabditis elegans, UniProt G5EF15); assay: Fluorescence polarization screening of POS-1 binding to fluorescein-labeled BMF018 RNA; conditions: read-out: POS-1 score
T2 construct: 6-his tag (N); made in house; host or cells: E. coli BL21 (DE3) Gold
T2 sequence (G5EF15 80-180): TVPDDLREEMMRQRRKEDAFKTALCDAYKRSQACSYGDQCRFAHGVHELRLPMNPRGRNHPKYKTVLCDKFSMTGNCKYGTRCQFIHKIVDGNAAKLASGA

[1] = 192 μM test compound, score = polarization relative to no-drug and no-protein controls, 0.25 = 75% inhibition, lowest score = greatest inhibition

Compound	remaining activity at 192 µM (MEX-5; [1]) [%]	remaining activity at 192 µM (POS-1; [1]) [%]	remaining activity at 192 µM (MEX-5) [%]	remaining activity at 192 µM (POS-1) [%]
Cc1n[nH]c(SCc2ccc(CSc3nc(C)n[nH]3)cc2)n1 [AA]	7.14	0.702	–	–
O=C(O)c1ccc(C2Nc3ccc([N+](=O)[O-])cc3C3c4ccccc4CC23)cc1 (centres unmarked) [AB]	7.3	10.9	–	–
O=[N+]([O-])c1ccc(S(=O)(=O)Nc2cc(Cl)ccc2O)cc1 [AD]	8.04	8.27	–	–
Cc1nnc(NC(=O)c2cccc(C(=O)Nc3nnc(C)s3)n2)s1 [AF]	8.13	22.7	–	–
O=C(O)c1cc(NC(=O)c2cccc(N3C(=O)CCC3=O)c2)cc(C(=O)O)c1 [AH]	8.76	14.6	–	–
O=C(Nc1nnc[nH]1)c1ccccc1O [AI]	9.13	2.5	–	–
CCOc1cc(C(NC(C)=O)c2cc([N+](=O)[O-])c3cccnc3c2O)ccc1O (centres unmarked) [AL]	10.4	12.3	–	–
O=C(O)C1CCC(N2C(=O)c3c(Cl)c(Cl)c(Cl)c(Cl)c3C2=O)CC1 (centres unmarked) [AO]	10.6	6.81	–	–
O=[N+]([O-])c1ccc(NS(=O)(=O)c2ccccc2)c(NS(=O)(=O)c2ccccc2)c1 [AQ]	12.4	11.6	–	–
CCn1c(-c2cc(Br)ccc2O)n[nH]c1=S [AU]	13.4	24.8	–	–
COc1ccc(N2C(=O)NC(=O)/C(=C/c3cccc(OC(=O)c4cccs4)c3)C2=O)cc1Cl [AV]	–	–	14	10.9
Oc1ccc(-c2csc(Nc3cccc4ccccc34)n2)cc1O [AY]	14.1	18	–	–
Cc1sc(NC(=O)c2cnccn2)c(C(N)=O)c1C [AZ]	14.4	25.4	–	–
COC(=O)c1ccccc1OC(=O)c1ccc2c(c1)C1C=CCC1C(C(=O)O)N2 (centres unmarked) [A]	-10.3	7.5	–	–
O=C(O)CCn1cc(C=C2C(=O)NC(=S)NC2=O)c(-c2cc3ccccc3oc2=O)n1 [BA]	–	–	15.2	22.2
COc1ccc(C(=O)NC(=S)Nc2ccc(C(=O)O)c(Cl)c2)cc1[N+](=O)[O-] [BF]	16.7	9.05	–	–
O=C1NN(c2cccc(Br)c2)C(=O)/C1=C\c1cccc(OC(=O)c2cccs2)c1 [BI]	17.9	10.6	–	–
O=C(Cn1cnc2ccccc2c1=O)Nc1ccc(S(=O)(=O)Nc2nccs2)cc1 [BJ]	18.2	11.9	–	–
Sc1nnc(CSCc2ccccc2Cl)n1-c1ccccc1 [BL]	18.8	27.6	–	–
O=C(O)c1ccccc1NC(=S)NC(=O)c1sc2ccccc2c1Cl [BP]	19.2	4.54	–	–
COc1cc2ccccc2cc1C(=O)NC(=S)Nc1cccc(C(=O)O)c1 [BS]	20	24.3	–	–
CCc1nnc(NS(=O)(=O)c2ccc(NC(=O)c3cc4cc(OC)ccc4oc3=O)cc2)s1 [BU]	20.8	18.1	–	–

Reference: patent US8962244B2, “Compounds for modulating RNA binding proteins and uses therefor” (University of Massachusetts, priority 2009, dated 2015)
